Where two headings read alike, the source gives them in different places.
Tests used:
[1] = design: species or system mice; details: mouse, in vivo
Protocol: 14 d acute oral toxicity of compound 1 of formula I was performed. Three doses were selected: 47, 23, 12 and 0 mg/kg bw (Vehicle control) of compound 1 of formula I was administered by single oral gavage using blunt ended steel canula.
Clinical biochemistry was performed using detection kit purchased from SPINREACT, SA, Spain. The blood left after the hematological studies were allowed to clot for 2 h and serum separated by centrifugation at 3000 rpm for 5 min and subsequently used for clinical biochemistry. Details of the clinical biochemistry (Table 4) and relative organ weight (Table 5) are given below.

[2] = mouse, in vivo
Protocol: (§1) Earlier, LD50 of ICB 14 C6 was derived from in vitro cytotoxicity assay by NRUmethod in 3T3 cells. […] For 90d sub-chronic toxicity study the highest dose selected was one-fourth of the limit dose. Four different doses of ICB14 C6 (47, 23, 12 and 0 [vehicle] mg/kg body weight) were prepared in ground nut oil daily for 5 days a week for 90d.
Compound 1 of formula I was administered by oral gavage in water using blunt ended steel canula.
On each working day, all mice were inspected and observations recorded. All the mice were weighed weekly.
From the day of administering the drug, 30 min cage side observation of the animals were performed every day (5 days a week) till the day of sacrifice. No signs and symptoms of restlessness, perinasal wetness and rapid rate of respiration were observed post administration. […] On the 12th week we found the mouse in a shrunken state as it was kept in the deep freezer.

COX-1 = COX-1 (Homo sapiens, UniProt P23219); details: cited from earlier work
[3] = mouse, in vivo; remark: listed apart in the source
Protocol: as §1
Blood samples were taken from the retro-orbital sinus on day 91 for hematological and clinical chemistry analyses. Clinical analysis included serum creatinine, serum gammaGT, serum uric acid, serum glucose, serum protein, serum bilirubin, serum GOT/AST and serum GPT/ALT. Hematology including white blood cell count was analyzed with the help of Automatic Hematology Analyzer (Medonic).
The blood left after the hematological studies were allowed to clot for 2 h and serum separated by centrifugation at 3000 rpm for 5 min and subsequently used for clinical biochemistry using kits from Spinreact S.A. (Girona, Spain). Procedural details given in the technical bulletin were followed for the measurement of different serum parameters.

lung inflammation = assay: Histological analysis of lung inflammation (H&E), OVA mouse model; format: in vivo, BALB/c mice
Protocol: (§2) Mice were sensitized with 0.2 ml PBS containing 50 μg ovalbumin (OVA) (Sigma, USA) and 4 mg aluminum hydroxide in saline intraperitonially (i.p.) on days 0, 7 and 14 as shown in FIG. 1. Sham group mice were sensitized with only alum dissolved in PBS. From day 18 to 27, mice were exposed to aerosol of OVA (3%) inhalation 25 minutes daily in a Plexiglas chamber (20×20×10 cm^3). The aerosol was generated by a nebulizer (OMRON CX model) with an airflow rate of 9 L/minute. Sham group mice were challenged with PBS alone.
Compound 1 of formula I was dissolved in 50% ethanol. So 50% ethanol was used as a vehicle. Group I was alum sensitized, saline challenged and treated with vehicle (SHAM/SAL/VEH), group II was OVA sensitized, OVA challenged and treated with 50% ethanol as vehicle (OVA/OVA/VEH), group III, IV, V, VI were OVA sensitized, OVA challenged and treated with 0.05, 0.1, 5 and 10 mg/kg compound 1 of formula I. Drug was given in the volume of 10 μl orally twice per day. Confirmatory experiments were done with two concentrations of compound 1 of formula I (5 and 10 mg/kg twice a day), and these findings were compared with parallel group of mice which were OVA-sensitized, -OVA challenged and treated orally once a day with 0.75 mg/kg Dexamethasone (OVA/OVA/DEX).
The excised lung portion was fixed in 10% buffered formalin. […]

3T3 cells = assay: In vitro cytotoxicity by NRU method, predicted acute oral LD50; format: cell-based; details: derived from in vitro cytotoxicity
Protocol: as §1

OVA specific IgE = assay: OVA-specific IgE levels in sera by ELISA, OVA mouse model; format: in vivo, BALB/c mice; details: 10 mg/kg vs OVA/OVA/VEH
Protocol: as §2
Compound 1 of formula I was dissolved in 50% ethanol. So 50% ethanol was used as a vehicle. Group I was alum sensitized, saline challenged and treated with vehicle (SHAM/SAL/VEH), group II was OVA sensitized, OVA challenged and treated with 50% ethanol as vehicle (OVA/OVA/VEH), group III, IV, V, VI were OVA sensitized, OVA challenged and treated with 0.05, 0.1, 5 and 10 mg/kg compound 1 of formula I. Drug was given in the volume of 10 μl orally twice per day. […]
OVA-specific IgE levels in sera were measured by enzyme linked immunosorbent assay (ELISA) as described previously with little modification (Inflam. Res. 2003, 52, 101-106). Absorbance values at 450 nm were converted to arbitrary values by multiplying with 100. IL-4 levels in lung homogenates were measured by ELISA method as per manufacturer's instructions (BD Pharmingen, USA). […]

COX-1, sequence (P23219 24-599): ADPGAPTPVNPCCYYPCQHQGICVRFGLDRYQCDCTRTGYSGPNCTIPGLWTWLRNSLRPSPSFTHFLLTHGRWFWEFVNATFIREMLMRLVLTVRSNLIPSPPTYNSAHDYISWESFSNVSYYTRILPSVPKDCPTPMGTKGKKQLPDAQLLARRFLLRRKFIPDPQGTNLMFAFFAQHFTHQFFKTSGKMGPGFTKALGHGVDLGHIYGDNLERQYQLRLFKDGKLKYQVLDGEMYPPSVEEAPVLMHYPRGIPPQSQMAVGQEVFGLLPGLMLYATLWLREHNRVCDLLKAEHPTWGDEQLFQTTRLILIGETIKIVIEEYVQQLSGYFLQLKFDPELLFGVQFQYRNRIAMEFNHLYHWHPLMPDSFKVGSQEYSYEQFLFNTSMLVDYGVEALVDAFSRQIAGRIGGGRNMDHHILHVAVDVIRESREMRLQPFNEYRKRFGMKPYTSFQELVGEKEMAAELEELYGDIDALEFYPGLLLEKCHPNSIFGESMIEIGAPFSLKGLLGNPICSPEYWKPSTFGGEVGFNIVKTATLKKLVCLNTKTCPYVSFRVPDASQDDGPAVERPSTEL

C=CCc1ccc(O)c(O)c1 [Compound 1, 4-allyl-benzene-1,2-diol]
serum bilirubin vs normal range [1]: marginal rise in the serum bilirubin | Acid phosphatase ([1]; 12 mg/kg): 2.98 ± 1.2 | Bilirubin ([1]; 12 mg/kg): 0.28 ± 0.30 mg/dL | Glucose ([1]; 12 mg/kg): 49 ± 0.193 mg/dL | SGOT ([1]; 12 mg/kg): 4.32 ± 1.87 U/L | SGPT ([1]; 12 mg/kg): 8.42 ± 5.8 U/L | Uric acid ([1]; 12 mg/kg): 5.89 ± 1.6 mg/dL | gammaGT ([1]; 12 mg/kg): 1.78 ± 0.68 U/L | Acid phosphatase ([1]; 23 mg/kg): 2.75 ± 0.74 | Bilirubin ([1]; 23 mg/kg): 0.19 ± 0.22 mg/dL | Glucose ([1]; 23 mg/kg): 57 ± 0.12 mg/dL | SGOT ([1]; 23 mg/kg): 8.64 ± 3.74 U/L | SGPT ([1]; 23 mg/kg): 12.15 ± 5.50 U/L | Uric acid ([1]; 23 mg/kg): 7.51 ± 4.13 mg/dL | gammaGT ([1]; 23 mg/kg): 2.38 ± 1.19 U/L | Acid phosphatase ([1]; 47 mg/kg): 2.06 ± 1.52 | Bilirubin ([1]; 47 mg/kg): 1.41 ± 0.3 mg/dL | Glucose ([1]; 47 mg/kg): 58 ± 0.07 mg/dL | SGOT ([1]; 47 mg/kg): 3.24 ± 2.91 U/L | SGPT ([1]; 47 mg/kg): 10.8 ± 23^ U/L | Uric acid ([1]; 47 mg/kg): 5.59 ± 2.67 mg/dL | gammaGT ([1]; 47 mg/kg): 2.38 ± 0.97 U/L | cage side observation [2]: All the animals appeared normal | feed and water consumption [2]: comparable to sham controls | necropsy findings in vital organs [2]: no gross or microscopic lesion | mortality ([2]; 47 mg/kg, 90 d): on the 11th weekend it died | COX-1 inhibition (COX-1): potent COX-1/COX-2 inhibitor | Activities of AST, ALT and gammaGT enzymes vs normal range [3]: within the normal range | Bilirubin ([3]; 12 mg/kg): 0.91 ± 0.47 mg/dL | Creatinine ([3]; 12 mg/kg): 1.03 ± 0.48 mg/dL | GOT/AST ([3]; 12 mg/kg): 12.25 ± 2.18 U/L | GPT/ALT ([3]; 12 mg/kg): 8.56 ± 3.79 U/L | Glucose ([3]; 12 mg/kg): 79.89 ± 22.82 mg/dL | LDH ([3]; 12 mg/kg): 175.3 ± 18 U/L | Total protein ([3]; 12 mg/kg): 8.63 ± 1.81 g/dL | Uric acid ([3]; 12 mg/kg): 6.05 ± 3.9 mg/dL | gammaGT ([3]; 12 mg/kg): 12.73 ± 6.74 U/L | Bilirubin ([3]; 23 mg/kg): 0.37 ± 012 mg/dL | Creatinine ([3]; 23 mg/kg): 1.10 ± 0.65 mg/dL | GOT/AST ([3]; 23 mg/kg): 13.56 ± 6.88 U/L | GPT/ALT ([3]; 23 mg/kg): 12.84 ± 7.9 U/L | Glucose ([3]; 23 mg/kg): 61.66 ± 13.08 mg/dL | LDH ([3]; 23 mg/kg): 198.6 ± 27 U/L | Total protein ([3]; 23 mg/kg): 6.52 ± 2.61 g/dL | Uric acid ([3]; 23 mg/kg): 7.15 ± 0.62 mg/dL | gammaGT ([3]; 23 mg/kg): 15.29 ± 5.38 U/L | Bilirubin ([3]; 47 mg/kg): 0.54 ± 0.39 mg/dL | Creatinine ([3]; 47 mg/kg): 1.36 ± 0.56 mg/dL | GOT/AST ([3]; 47 mg/kg): 5.30 ± 1.55 U/L | GPT/ALT ([3]; 47 mg/kg): 5.71 ± 9.89 U/L | Glucose ([3]; 47 mg/kg): 86.42 ± 6.39 mg/dL | LDH ([3]; 47 mg/kg): 210.5 ± 25 U/L | Total protein ([3]; 47 mg/kg): 7.78 ± 1.37 g/dL | Uric acid ([3]; 47 mg/kg): 5.59 ± 1.26 mg/dL | gammaGT ([3]; 47 mg/kg): 15.66 ± 2.63 U/L | lung inflammation (H&E) (lung inflammation; 5 mg/kg): mild reduction of inflammation | lung inflammation (H&E) (lung inflammation; 10 mg/kg): a significant reduction in both peribronchial and perivascular inflammation | predicted acute oral LD50 (3T3 cells): 168 mg/kg | OVA specific IgE levels in sera (OVA specific IgE): significantly reduced the OVA specific IgE levels in sera | OVA specific IgE levels in sera (OVA specific IgE; listed as compound of formula I): significant reduction | in vivo acute oral LD50 (In vivo acute oral LD50): 268 mg/kg bw

From patent US9302967B2, “Substituted cathechols as inhibitors of IL-4 and IL-5 for the treatment of bronchial asthma” (Council of Scientific & Industrial Research, priority 2011, dated 2016)
